Source: patent US20240336574A1 (LATIGO BIOTHERAPEUTICS, INC., priority 2021, published 2024)
Read-outs that look alike come from different tables or passages of the source.

Tests used:
Type in all cases: cell-based
[1] = target: T1, human NaV1.8 (Homo sapiens, UniProt Q9Y5Y9); test: Human NaV1.8 cell line SyncroPatch384PE automated patch clamp assay; parameters: expressed in transfected cells; host or cells: HEK cells, stably transfected; details: resting state block (P1 measurement), recombinant human NaV1.8 cells
Method: Compound Profiling on NaV1.8—Human NaV1.8 Cell Line—SyncroPatch384PE Assay
Compounds were tested on recombinant human NaV1.8 stably transfected HELK cells using the SyncroPatch384PE system, an automated patch clamp device. Cells were cultured at 37° C./5% CO2 in DMEM medium supplemented with GlutaMAX I, NEAA 1%, FBS 10% and seeded in T175 flasks. Cells were cultured at 30° C. one day prior to recording sodium currents. On the day of the recordings, cells were detached with 0.05% Trypsin-EDTA, resuspended in serum free DMEM medium and placed into the SyncroPatch384PE 6° C. pre-cooled cell hotel and shaken at 200 rpm. Intracellular solution (IC) contained, in mM: 10, CsCl; 110, CsF; 20, EGTA; 10, HEPES. Extracellular solution (EC) contained, in mM: 140, NaCl; 4, KCl; 5, Glucose; 10, HEPES; 2, CaCl2; 1, MgCl2. Washing solution contained, in mM: 40, NMDG; 100, NaCl; 4, KCl; 10, Glucose; 10, HEPES; 5, CaCl2; 1, MgCl2.
Compounds were tested in quadruplicates in 0.1% DMSO and 0.030% Pluronic Acid. Compounds were diluted 1:3.33 in EC solution to create a 10-point concentration response curve, spanning a final concentration range from 10-0.0002 μM in the assay plate. Compounds with low nM potency were retested using a lower concentration range (1-0.00002 μM). Each plate contained tetracaine and another tool compound as positive controls. Up to 7 compounds were tested on one plate. 150 μM tetracaine and 0.1% DMSO were used as high and low controls, respectively.
Whole cell patch clamp recordings were conducted according to Nanion's standard procedure for SyncroPatch384PE®. Cells were held at a holding potential of −120 mV. A depolarization step to 10 mV for 30 ms was applied (P1 measurement), followed by a hyperpolarization step to −100 mV for 100 ms. An inactivation step at −40 mV for 10 sec was applied before stepping to −100 mV for 20 ms, followed by a step to 10 mV for 30 ms (P2 measurement) and then back to −100 mV for 30 ms. Sweep interval was 15 sec with a sampling rate of 10 kHz. Following establishment of the whole-cell configuration in EC, two washing steps with reference buffer were performed to stabilize the baseline. Compounds were then applied by the SynchroPatch into each well and the current was recorded for five minutes in EC, followed by application of tetracaine to achieve full block at the end of the experiment. The potency of the compounds was assessed on two read-outs, resting state block (P1 measurement) or inactivated state block (P2 measurement) to obtain IC50 values. Values were normalized to high (tetracaine) and low (DMSO) controls.

[2] = target: T1, human NaV1.8; test: Activity of representative NaV1.8 inhibitors, determined using one or more of the methods of Example 122 (method not specified); parameters: expressed in transfected cells; host or cells: HEK293 / HEK-293, stably expressing; details: inhibition of the Nav1.8 channel; one or more of fluorescence, PatchXpress or IonFlux HT methods
Method: The ability of pyridazine carboxamide derivatives exemplified above to inhibit the NaV1.8 channel was determined using one or more of the methods described below.
A HEK293 cell line stably expressing the human NaV1.8 (hNaV1.8) ion channel with β1/β2 subunits was constructed. The cell line is suitable for IC50 determination in fluorescence and electrophysiological based assays. It is also suitable to form mechanism of action pharmacology studies in electrophysiological assays. HEK293 NaV1.8 cells are grown as adherent monolayers in DMEM/high glucose media, 10% fetal bovine serum, Na pyruvate (2 mM), Hepes (10 mM) with selection agents G418 (400 mg/L) and puromycin (0.5 mg/L) at 37 degrees C., 10% CO2.
Activity of Representative NaV1.8 Inhibitors
The ability of representative pyridazine carboxamide derivatives exemplified above to inhibit the Nav1.8 channel was determined using one or more of the methods described immediately hereinabove.

[3] = target: T2, recombinant human NaV1.8 stably transfected HEK cells (Homo sapiens, UniProt Q9Y5Y9); test: Compound profiling on NaV1.8, human NaV1.8 cell line, SyncroPatch384PE automated patch clamp assay (Example 115, third set of compounds, Table 27); details: human NaV1.8 HEK cells, Table 27 (third set of compounds)
T2 construct: expressed in transfected cells; host or cells: HEK cells, stably transfected
In short: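 HEK cells, cultured at 30 °C the day before, recorded by automated whole-cell patch clamp (CsF intracellular, 140 mM Na+ external), holding −120 mV. 10-point curves at 10–0.0002 µM (or 1–0.00002 µM), 5 min exposure; IC50 for resting (P1) and inactivated-state block (P2, after 10 s at −40 mV), normalized to 150 µM tetracaine and 0.1% DMSO.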

[4] = inactivated state block (P2 measurement), read-out: P2 IC50
[5] = resting state block (P1 measurement), read-out: P1 IC50

T2 sequence (Q9Y5Y9 whole entry): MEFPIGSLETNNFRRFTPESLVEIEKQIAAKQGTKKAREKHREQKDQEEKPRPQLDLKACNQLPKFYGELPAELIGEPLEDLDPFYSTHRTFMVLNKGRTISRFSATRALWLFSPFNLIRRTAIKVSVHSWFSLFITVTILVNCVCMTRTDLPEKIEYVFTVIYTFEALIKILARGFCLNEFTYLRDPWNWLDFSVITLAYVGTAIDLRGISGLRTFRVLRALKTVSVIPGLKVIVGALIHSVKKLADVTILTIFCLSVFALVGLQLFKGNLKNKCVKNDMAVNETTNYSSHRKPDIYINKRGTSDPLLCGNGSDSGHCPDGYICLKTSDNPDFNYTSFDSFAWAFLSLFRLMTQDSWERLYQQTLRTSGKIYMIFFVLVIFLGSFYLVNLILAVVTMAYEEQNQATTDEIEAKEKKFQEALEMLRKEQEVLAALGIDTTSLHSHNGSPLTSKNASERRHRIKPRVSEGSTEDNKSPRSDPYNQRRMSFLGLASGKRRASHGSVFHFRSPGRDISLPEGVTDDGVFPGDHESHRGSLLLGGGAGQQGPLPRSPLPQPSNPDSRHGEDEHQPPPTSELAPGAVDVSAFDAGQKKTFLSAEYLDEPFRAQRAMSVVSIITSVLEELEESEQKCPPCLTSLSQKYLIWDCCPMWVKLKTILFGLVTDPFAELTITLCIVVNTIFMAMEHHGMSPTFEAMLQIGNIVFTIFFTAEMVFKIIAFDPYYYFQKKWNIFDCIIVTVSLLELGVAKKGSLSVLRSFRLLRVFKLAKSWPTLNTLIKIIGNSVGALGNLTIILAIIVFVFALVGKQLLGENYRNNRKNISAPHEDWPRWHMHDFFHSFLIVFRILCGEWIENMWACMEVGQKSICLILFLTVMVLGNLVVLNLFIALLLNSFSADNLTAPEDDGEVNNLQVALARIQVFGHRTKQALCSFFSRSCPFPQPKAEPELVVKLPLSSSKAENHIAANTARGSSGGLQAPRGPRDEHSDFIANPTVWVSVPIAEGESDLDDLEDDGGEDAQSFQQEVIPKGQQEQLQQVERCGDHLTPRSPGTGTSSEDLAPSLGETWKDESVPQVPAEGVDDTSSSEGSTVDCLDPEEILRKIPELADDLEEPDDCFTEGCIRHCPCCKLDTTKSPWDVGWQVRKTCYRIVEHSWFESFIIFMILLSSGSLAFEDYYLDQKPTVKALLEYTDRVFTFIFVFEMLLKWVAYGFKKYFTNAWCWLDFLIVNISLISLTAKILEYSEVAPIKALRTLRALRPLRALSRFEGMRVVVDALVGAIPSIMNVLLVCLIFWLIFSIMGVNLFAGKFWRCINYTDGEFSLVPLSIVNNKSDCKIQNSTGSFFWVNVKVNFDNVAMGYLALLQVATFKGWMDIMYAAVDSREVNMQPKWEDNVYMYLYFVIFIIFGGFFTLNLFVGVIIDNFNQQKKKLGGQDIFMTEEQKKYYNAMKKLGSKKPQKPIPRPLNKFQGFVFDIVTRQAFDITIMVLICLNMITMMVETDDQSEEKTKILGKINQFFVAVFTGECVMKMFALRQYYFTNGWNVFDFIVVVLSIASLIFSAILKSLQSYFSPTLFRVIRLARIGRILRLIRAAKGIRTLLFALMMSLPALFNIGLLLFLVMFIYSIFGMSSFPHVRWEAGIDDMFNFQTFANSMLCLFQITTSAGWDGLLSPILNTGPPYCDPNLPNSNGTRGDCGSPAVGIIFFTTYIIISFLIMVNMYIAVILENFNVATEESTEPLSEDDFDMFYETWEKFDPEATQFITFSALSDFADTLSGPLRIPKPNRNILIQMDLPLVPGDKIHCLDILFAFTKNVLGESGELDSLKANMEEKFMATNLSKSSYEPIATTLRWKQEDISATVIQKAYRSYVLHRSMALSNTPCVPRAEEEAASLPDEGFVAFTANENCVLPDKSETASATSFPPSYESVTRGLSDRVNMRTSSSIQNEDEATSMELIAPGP
T1 sequence (Q9Y5Y9 whole entry): as above

| IC50 [1] [nM] | IC50 [2] [nM] | IC50 [3, 4] [nM] | IC50 [3, 5] [nM] | SMILES |
| --- | --- | --- | --- | --- |
| > 5000 |  |  |  | COc1cc(F)ccc1Oc1nnc(C(F)(F)F)cc1C(=O)N[C@H]1CCCNC1 [Compound 6, (S)-3-(4-Fluoro-2-methoxyphenoxy)-N-(piperidin-3-yl)-6-(trifluoromethyl)pyridazine-4-carboxamide] |
| > 5000 |  |  |  | COc1cc(F)ccc1Oc1nnc(C(F)(F)F)cc1C(=O)N[C@H]1CCCN(C(C)=O)C1 [Compound 8] |
| > 5000 |  |  |  | COc1cc(F)ccc1Oc1nnc(C(F)(F)F)cc1C(=O)N[C@H]1CCCN(C(=O)OC(C)(C)C)C1 [Compound 5, tert-Butyl (S)-3-(3-(4-fluoro-2-methoxyphenoxy)-6-(trifluoromethyl)pyridazine-4-carboxamido)piperidine-1-carboxylate] |
| > 5000 |  |  |  | COc1cc(F)ccc1Oc1nnc(C(F)(F)F)cc1C(=O)NC1CCCNC1=O (centres unmarked) [Compound 9] |
|  | < 500 |  |  | CS(=O)(=O)c1cccc(NC(=O)c2cc(Cl)nnc2Oc2ccc(OC(F)(F)F)cc2)c1 [Example 3, 6-chloro-N-(3-methylsulfonylphenyl)-3-[4-(trifluoromethoxy)phenoxy]pyridazine-4-carboxamide] |
| > 5000 |  | 501 to 1000 | 1000 to 5000 | COc1cc(F)ccc1Oc1nnc(C(F)(F)F)cc1C(=O)N[C@H]1CCCN(S(C)(=O)=O)C1 [Compound 7, (S)-3-(4-Fluoro-2-methoxyphenoxy)-N-(1-(methylsulfonyl)piperidin-3-yl)-6-(trifluoromethyl)pyridazine-4-carboxamide] |
| > 5000 |  |  |  | COc1cc(F)ccc1Oc1nnc(C(F)(F)F)cc1C(=O)NC1CCC(=O)NC1 (centres unmarked) [Compound 12] |
|  |  | > 5000 | 1000 to 5000 | COc1cc(F)ccc1Oc1nnc(C)cc1C(=O)Nc1cccc(S(C)(=N)=O)c1 (centres unmarked) [Compound 94, 3-(4-Fluoro-2-methoxyphenoxy)-6-methyl-N-(3-(S-methylsulfonimidoyl)phenyl)pyridazine-4-carboxamide] |
|  |  | ≤ 200 | ≤ 200 | Cc1cc(Br)ccc1Oc1nnc(C(F)(F)F)cc1C(=O)Nc1cccc(S(C)(=O)=O)c1 [Compound 82] |
|  |  | 1000 to 5000 | > 5000 | COc1cc(F)ccc1Oc1nnc(C(F)(F)F)cc1C(=O)Nc1cccc(S(C)(=O)=O)n1 [Compound 15] |
|  |  | > 5000 | > 5000 | COc1cc(F)ccc1Oc1nnc(C(F)(F)F)cc1C(=O)Nc1cccc(N2CCOC2=O)c1 [Compound 57] |
|  |  | > 5000 | > 5000 | O=C1NCc2ccc(NC(=O)c3cc(C(F)(F)F)nnc3Oc3ccc(F)cc3Cl)cc21 [Compound 69] |
| > 5000 |  |  |  | Cc1cc(F)ccc1Oc1nnc(C(F)(F)F)cc1C(=O)NC1CCC(=O)NC1 (centres unmarked) [Compound 11] |
|  |  | > 5000 | > 5000 | O=C(Nc1ccc[n+]([O-])c1)c1cc(C(F)(F)F)nnc1Oc1ccc(F)cc1Cl [Compound 62] |
|  |  | ≤ 200 | ≤ 200 | CS(=O)(=O)c1cccc(NC(=O)c2cc(C(F)(F)F)nnc2Oc2ccc(F)cc2Cl)c1 [Compound 64] |
|  |  | ≤ 200 | ≤ 200 | Cc1cc(Br)ccc1Oc1nnc(C(F)(F)F)cc1C(=O)Nc1ccc(C(N)=O)cc1 [Compound 83] |

| IC50 [1] [nM] | IC50 [2] [nM] | IC50 [3, 4] [nM] | IC50 [3, 5] [nM] | SMILES |
| --- | --- | --- | --- | --- |
|  |  | ≤ 200 | ≤ 200 | Cc1cc(OC(F)(F)F)ccc1Oc1nnc(C(F)(F)F)cc1C(=O)Nc1ccc(C(N)=O)cc1 [Compound 37] |
|  |  | 501 to 1000 | 501 to 1000 | COc1cc(NC(=O)c2cc(C(F)(F)F)nnc2Oc2ccc(F)cc2C)ccn1 [Compound 86] |
| > 5000 |  |  |  | Cc1cc(F)ccc1Oc1nnc(C(F)(F)F)cc1C(=O)NC1CCCNC1=O (centres unmarked) [Compound 10] |
|  |  | > 5000 | > 5000 | CS(=O)(=O)c1cccc(NC(=O)c2cc(C(F)(F)F)nnc2Oc2cccc(OC(F)(F)F)c2)c1 [Compound 52] |
| > 5000 |  |  |  | CC(=O)N1CCC[C@@H](NC(=O)c2cc(C(F)(F)F)nnc2Oc2ccc(F)cc2C)C1 [Compound 4] |
|  |  | ≤ 200 | ≤ 200 | COc1cc(F)ccc1Oc1nnc(C(F)(F)F)cc1C(=O)Nc1ccnc(S(N)(=O)=O)c1 [Compound 50] |
|  |  | 501 to 1000 | 501 to 1000 | Cc1ccc(F)cc1Oc1nnc(C(F)(F)F)cc1C(=O)Nc1cccc(S(N)(=O)=O)c1 [Compound 119, 3-(5-Fluoro-2-methylphenoxy)-N-(3-sulfamoylphenyl)-6-(trifluoromethyl)pyridazine-4-carboxamide] |
|  |  | ≤ 200 | ≤ 200 | COc1cc(C#N)ccc1Oc1nnc(C(F)(F)F)cc1C(=O)Nc1cccc(S(N)(=O)=O)c1 [Compound 121, 3-(4-Cyano-2-methoxyphenoxy)-N-(3-sulfamoylphenyl)-6-(trifluoromethyl)pyridazine-4-carboxamide] |
|  |  | 501 to 1000 | 201 to 500 | CS(=O)(=O)c1cccc(NC(=O)c2cc(C(F)(F)F)nnc2Oc2cc(OC(F)(F)F)ccc2F)c1 [Compound 44] |
|  |  | > 5000 | > 5000 | NC(=O)c1cncc(NC(=O)c2cc(C(F)(F)F)nnc2Oc2cc(F)ccc2Cl)c1 [Compound 84] |
|  |  | ≤ 200 | ≤ 200 | COc1c(Oc2ncc(C(F)(F)F)nc2C(=O)Nc2cccc(S(C)(=N)=O)c2)ccc(F)c1F (centres unmarked) [Compound 136, 3-(3,4-difluoro-2-methoxy-phenoxy)-N-[3-(methylsulfonimidoyl)phenyl]-6-(trifluoromethyl)pyrazine-2-carboxamide] |
|  |  | 501 to 1000 | 201 to 500 | CS(=N)(=O)c1cccc(NC(=O)c2cc(C(F)(F)F)nnc2Oc2ccc(F)cc2Cl)c1 (centres unmarked) [Compound 96, 3-(2-Chloro-4-fluorophenoxy)-N-(3-(S-methylsulfonimidoyl)phenyl)-6-(trifluoromethyl)pyridazine-4-carboxamide] |
|  |  | > 5000 | > 5000 | Cc1cc(F)ccc1Oc1nnc(C(F)(F)F)cc1C(=O)Nc1ccc(=O)[nH]c1C [Compound 92, 3-(4-Fluoro-2-methylphenoxy)-N-(2-methyl-6-oxo-1,6-dihydropyridin-3-yl)-6-(trifluoromethyl)pyridazine-4-carboxamide] |
|  |  | > 5000 | > 5000 | Cc1cc(F)ccc1Oc1nnc(C(F)(F)F)cc1C(=O)Nc1cccc(S(C)(=O)=O)n1 [Compound 4] |
|  |  | ≤ 200 | ≤ 200 | Cc1cc(OC(F)(F)F)ccc1Oc1nnc(C(F)(F)F)cc1C(=O)Nc1cccc(S(C)(=O)=O)c1 [Compound 35] |
|  |  | 201 to 500 | 201 to 500 | Cc1cc(F)ccc1Oc1nnc(C(F)(F)F)cc1C(=O)Nc1ccc(C)c(S(C)(=N)=O)c1 (centres unmarked) [Compound 109, 3-(4-Fluoro-2-methylphenoxy)-N-(4-methyl-3-(S-methylsulfonimidoyl)phenyl)-6-(trifluoromethyl)pyridazine-4-carboxamide] |
